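Tested at 5 concentrations; 48 h exposure; 96-well plates; endpoints linearly interpolated, else capped at highest concentration. GI50: concentration for 50% inhibition of growth. TGI marks complete inhibition of growth.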
How the values were obtained:
Experiment in all cases: DTP human tumour cell line panel, 48 h
OVCAR-8 ovarian = tested on: OVCAR-8 ovarian
SF-539 CNS = tested on: SF-539 CNS
NCI-H23 lung = tested on: NCI-H23 lung
MCF7 breast = tested on: MCF7 breast
A549 NSCLC = tested on: A549 NSCLC
EKVX NSCLC = tested on: EKVX NSCLC
MDA-MB-231 breast = tested on: MDA-MB-231 breast
OVCAR-4 ovarian = tested on: OVCAR-4 ovarian
MDA-MB-435 = tested on: MDA-MB-435
CCRF-CEM leukemia = tested on: CCRF-CEM leukemia
A498 renal = tested on: A498 renal
OVCAR-5 ovarian = tested on: OVCAR-5 ovarian
NCI-H522 lung = tested on: NCI-H522 lung
SF-268 CNS = tested on: SF-268 CNS
HCC-2998 colon = tested on: HCC-2998 colon
786-0 renal = tested on: 786-0 renal
LOX IMVI melanoma = tested on: LOX IMVI melanoma
HOP-92 NSCLC = tested on: HOP-92 NSCLC
CAKI-1 renal = tested on: CAKI-1 renal
MOLT-4 leukemia = tested on: MOLT-4 leukemia
NCI-H226 lung = tested on: NCI-H226 lung
SK-MEL-28 melanoma = tested on: SK-MEL-28 melanoma
PC-3 prostate = tested on: PC-3 prostate
HCT-15 colon = tested on: HCT-15 colon
SNB-19 CNS = tested on: SNB-19 CNS
M14 melanoma = tested on: M14 melanoma
SN12C renal = tested on: SN12C renal
BT-549 breast = tested on: BT-549 breast
HOP-62 NSCLC = tested on: HOP-62 NSCLC
SR leukemia = tested on: SR leukemia
UACC-257 melanoma = tested on: UACC-257 melanoma
IGROV1 ovarian = tested on: IGROV1 ovarian
SK-MEL-2 melanoma = tested on: SK-MEL-2 melanoma
SK-OV-3 ovarian = tested on: SK-OV-3 ovarian
KM12 colon = tested on: KM12 colon
COLO 205 colon = tested on: COLO 205 colon
UACC-62 melanoma = tested on: UACC-62 melanoma
MALME-3M melanoma = tested on: MALME-3M melanoma
HT29 colon = tested on: HT29 colon
SK-MEL-5 melanoma = tested on: SK-MEL-5 melanoma
SNB-75 CNS = tested on: SNB-75 CNS
RXF 393 renal = tested on: RXF 393 renal
ACHN renal = tested on: ACHN renal
UO-31 renal = tested on: UO-31 renal
HCT-116 colon = tested on: HCT-116 colon
TK-10 renal = tested on: TK-10 renal
SW-620 colon = tested on: SW-620 colon
HS 578T breast = tested on: HS 578T breast
K-562 leukemia = tested on: K-562 leukemia
NCI/ADR-RES ovarian = tested on: NCI/ADR-RES ovarian
OVCAR-3 ovarian = tested on: OVCAR-3 ovarian
NCI-H460 lung = tested on: NCI-H460 lung
U251 CNS = tested on: U251 CNS
SF-295 CNS = tested on: SF-295 CNS
RPMI-8226 leukemia = tested on: RPMI-8226 leukemia
DU-145 prostate = tested on: DU-145 prostate
HL-60(TB) leukemia = tested on: HL-60(TB) leukemia

CN1c2cccc[c]2[Sn]([CH3])([CH3])[c]2ccccc21
GI50 (OVCAR-8 ovarian): < 13.4 nM
TGI (OVCAR-8 ovarian): < 23 nM
GI50 (SF-539 CNS): < 11 nM
TGI (SF-539 CNS): 47.3 nM
GI50 (NCI-H23 lung): < 10 nM
TGI (NCI-H23 lung): 67.7 nM
GI50 (MCF7 breast): < 10 nM
GI50 (A549 NSCLC): < 13.2 nM
TGI (A549 NSCLC): 93.2 nM
GI50 (EKVX NSCLC): < 10 nM
TGI (EKVX NSCLC): < 24.9 nM
GI50 (MDA-MB-231 breast): < 13.2 nM
TGI (MDA-MB-231 breast): 165 nM
GI50 (OVCAR-4 ovarian): < 12.1 nM
TGI (OVCAR-4 ovarian): 232 nM
GI50 (MDA-MB-435): < 10 nM
TGI (MDA-MB-435): 29.1 nM
GI50 (CCRF-CEM leukemia): < 10 nM
TGI (CCRF-CEM leukemia): 119 nM
GI50 (A498 renal): 101 nM
TGI (A498 renal): 255 nM
GI50 (OVCAR-5 ovarian): < 11.5 nM
TGI (OVCAR-5 ovarian): 264 nM
GI50 (NCI-H522 lung): 10.2 nM
TGI (NCI-H522 lung): 26.2 nM
GI50 (SF-268 CNS): < 17.8 nM
TGI (SF-268 CNS): 165 nM
GI50 (HCC-2998 colon): < 10 nM
TGI (HCC-2998 colon): 24.7 nM
GI50 (786-0 renal): < 14 nM
TGI (786-0 renal): 124 nM
GI50 (LOX IMVI melanoma): 10.7 nM
TGI (LOX IMVI melanoma): 30.4 nM
GI50 (HOP-92 NSCLC): 10 nM
TGI (HOP-92 NSCLC): 104 nM
GI50 (CAKI-1 renal): 10 nM
TGI (CAKI-1 renal): < 35.6 nM
GI50 (MOLT-4 leukemia): 10.1 nM
TGI (MOLT-4 leukemia): 936 nM
GI50 (NCI-H226 lung): < 13.8 nM
TGI (NCI-H226 lung): 132 nM
GI50 (SK-MEL-28 melanoma): 113 nM
TGI (SK-MEL-28 melanoma): 303 nM
GI50 (PC-3 prostate): 19.1 nM
TGI (PC-3 prostate): 154 nM
GI50 (HCT-15 colon): < 12.5 nM
TGI (HCT-15 colon): 116 nM
GI50 (SNB-19 CNS): 21.2 nM
TGI (SNB-19 CNS): 215 nM
GI50 (M14 melanoma): < 14.8 nM
TGI (M14 melanoma): 30.5 nM
GI50 (SN12C renal): < 13.8 nM
TGI (SN12C renal): 116 nM
GI50 (BT-549 breast): < 10 nM
TGI (BT-549 breast): 165 nM
GI50 (HOP-62 NSCLC): < 13.7 nM
TGI (HOP-62 NSCLC): 71.4 nM
GI50 (SR leukemia): < 10 nM
TGI (SR leukemia): 38.7 nM
GI50 (UACC-257 melanoma): < 10 nM
TGI (UACC-257 melanoma): < 21.7 nM
GI50 (IGROV1 ovarian): < 16.6 nM
TGI (IGROV1 ovarian): 140 nM
GI50 (SK-MEL-2 melanoma): < 20.9 nM
TGI (SK-MEL-2 melanoma): 180 nM
GI50 (SK-OV-3 ovarian): < 14.4 nM
TGI (SK-OV-3 ovarian): < 32.6 nM
GI50 (KM12 colon): < 10 nM
TGI (KM12 colon): < 16.9 nM
GI50 (COLO 205 colon): 15 nM
TGI (COLO 205 colon): 57.2 nM
GI50 (UACC-62 melanoma): < 14.7 nM
TGI (UACC-62 melanoma): 113 nM
GI50 (MALME-3M melanoma): < 23.8 nM
TGI (MALME-3M melanoma): 226 nM
GI50 (HT29 colon): < 12 nM
TGI (HT29 colon): < 24.9 nM
GI50 (SK-MEL-5 melanoma): < 10 nM
TGI (SK-MEL-5 melanoma): 23 nM
GI50 (SNB-75 CNS): < 14.2 nM
TGI (SNB-75 CNS): 192 nM
GI50 (RXF 393 renal): 27.9 nM
TGI (RXF 393 renal): 202 nM
GI50 (ACHN renal): < 15.5 nM
TGI (ACHN renal): 170 nM
GI50 (UO-31 renal): 37.4 nM
TGI (UO-31 renal): 182 nM
GI50 (HCT-116 colon): < 10.7 nM
TGI (HCT-116 colon): < 16.1 nM
GI50 (TK-10 renal): < 19.2 nM
TGI (TK-10 renal): 135 nM
GI50 (SW-620 colon): 19 nM
TGI (SW-620 colon): 67.5 nM
GI50 (HS 578T breast): 16.6 nM
TGI (HS 578T breast): 683 nM
GI50 (K-562 leukemia): < 10 nM
TGI (K-562 leukemia): 2130 nM
GI50 (NCI/ADR-RES ovarian): 13.2 nM
TGI (NCI/ADR-RES ovarian): 49.1 nM
GI50 (OVCAR-3 ovarian): < 11.5 nM
TGI (OVCAR-3 ovarian): < 22.4 nM
GI50 (NCI-H460 lung): < 10 nM
TGI (NCI-H460 lung): 12.6 nM
GI50 (U251 CNS): < 16 nM
TGI (U251 CNS): 134 nM
GI50 (SF-295 CNS): < 16.5 nM
TGI (SF-295 CNS): < 34 nM
GI50 (RPMI-8226 leukemia): < 11.9 nM
TGI (RPMI-8226 leukemia): 31.6 nM
GI50 (DU-145 prostate): < 13.1 nM
TGI (DU-145 prostate): 98.8 nM
GI50 (HL-60(TB) leukemia): < 10 nM
TGI (HL-60(TB) leukemia): 56.9 nM
